Here are results for 2 molecules from patent US12152240B2, “Permanent epigenetic gene silencing” (Ospedale San Raffaele S.R.L., priority 2014, dated 2024).

Format in all cases: cell-based, human
For assay [1], the system named is eGFP-negative (silenced) AAVS1/TetO7 cells. Nature of the assay: 5-Aza treatment of eGFP-silenced AAVS1/TetO7 cells (flow cytometry). The note with it: 7 days. Here is the method:
In order to understand if DNA methylation was necessary to maintain the repressive state induced by tetR:D3A, the eGFP-cells from the doxy-conditions in FIG. 2D were treated with either 5-Aza-2′-deoxycytidine (5-Aza) or vehicle (i.e. Dimethyl Sulfoxide, DMSO) and then analysed by flow cytometry to measure eGFP expression. 5-Aza is a cytosine analogue that after becoming incorporated into DNA is recognised by DNA methyltransferase as a substrate, establishing a covalent bond that, contrary to cytosine, is not resolved, thus blocking DNMT activity (Issa, J. P. et al. (2005) Nat. Rev. Drug Discov. Suppl. S6-7).
To test activity of the ATRs, the reporter cell lines were transduced with the ATR-expressing Bid.LV at a MOI of 10, or transfected with plasmids or in vitro transcribed mRNAs expressing the ATRs (4D-Nucleofector™ System; Lonza) according to the manufacturer's instruction for K-562, U937 and NIH/3T3, or using the pulse program EW-113 and the SF solution for B-lymphoblastoid cells. […] The AZA-containing media was replaced every day, and the cells were analysed by flow cytometry at day 4 and 7 after treatment. […] The IFN-γ-containing media was replaced every day, and the cells were analysed by flow cytometry at day 2 and 4 after treatment. […] Two weeks after plating, colonies were counted and identified according to morphological criteria and analysed by flow cytometry.
(In general: Flow cytometry measures light scatter and fluorescence of single cells or particles in a stream.)

Assay [2] deals with B2M gene promoter region, HEK-293T cells. As to the kind of experiment: B2M silencing in HEK-293T cells (flow cytometry). The note with it: day 7 upon AZA treatment. The source says:
In order to assess if the results obtained with the eGFP reporter system could also be translated to an endogenous gene embedded in its natural epigenetic context, we generated custom-made TALEs targeting the promoter region of the B2-Microglobulin (B2M) gene (the amino acid sequences of these TALEs and the nucleotide sequences of their corresponding binding sites are listed in Table 3), and fused these TALEs to the KRAB, DNMT3A and DNMT3L effector domains (for a schematic of the system refer to FIG. 13A). The spacer length between the first and the second, or between the second and the third TALE is 1 or 20 bp, respectively. We then co-transfected HEK-293T cells with the plasmids encoding for these novel ATRs and analysed the cells by flow cytometry for B2M expression.
Remarkably, up to 80% of the cells treated with all the ATRs permanently lost B2M surface expression. In parallel experiments, we sorted the B2M-negative and the B2M-positive cells, and analysed them for surface expression of MHC-I molecules, which require B2M to be presented on the plasma membrane. […] Then we assessed if the three effector domains were capable of inducing permanent epigenetic silencing also when targeted to the B2M gene via the RNA-guided CRISPR/Cas9 system. […]
We then assessed if these findings also held true with ATRs based on custom-made DNA binding domains. […]

The subject of assay [3] is B2M gene, HEK-293T cells. Nature of the assay: B2M, OAS1 and B2M locus gene expression in HEK-293T cells (RT-qPCR). The source says:
Remarkably, up to 80% of the cells treated with all the ATRs permanently lost B2M surface expression. In parallel experiments, we sorted the B2M-negative and the B2M-positive cells, and analysed them for surface expression of MHC-I molecules, which require B2M to be presented on the plasma membrane. […] Then we assessed if the three effector domains were capable of inducing permanent epigenetic silencing also when targeted to the B2M gene via the RNA-guided CRISPR/Cas9 system. To this aim, we fused in frame to a catalytically dead Cas9 (D10A+H840A; dCas9; amino acid sequence listed in Table 4) the KRAB, the DNMT3A or the DNMT3L effector domains (FIG. 13E; top drawings), and designed 11 guide RNAs (gRNAs; nucleotide sequences listed in Table 4) targeting the promoter region of the B2M gene (FIG. 13E; bottom schematic, arrows indicate the location of the CRISPR/dCas9 target sites). […] We then assessed if B2M silencing was resistant to IFN-γ treatment, a potent inducer of B2M expression (Vraetz, T. et al. (1999) Nephrol. Dial. Transplant. 14:2137-43; Gobin, S. J. et al. (2003) Blood 101:3058-64). […]
In order to assess if silencing induced by our ATRs was associated with the deposition of repressive epigenetic marks on the targeted gene, we analysed the epigenetic state of the B2M gene in wild-type and silenced cells. […]
For orientation: In qPCR the cycle at which signal appears reflects the starting amount.

Take `Nc1ncn([C@H]2C[C@H](O)[C@@H](CO)O2)c(=O)n1` [5-Aza, 5-Aza-2′-deoxycytidine]: the “eGFP expression after 5-Aza treatment” value in assay [1] (eGFP- cells silenced with tetR:D3A, 1 μM) is recorded as “full reactivation of eGFP expression”; in assay [1] (eGFP-negative sorted cells from tetR:K/tetR:D3A conditions) it was “completely reactivated eGFP expression”. Also, in assay [2], the “B2M expression after AZA treatment of previously silenced cells” value is on record as “re-expression of the B2M gene”.
As to “IFN-γ: a potent inducer of B2M expression”, the “B2M expression upon IFN-γ treatment (transcriptional and protein level)” value in assay [3] (500 U/mL IFN-γ, wild-type or sorted B2M-negative cells) is reported as “significantly upregulated B2M expression”. For the same molecule, the “upregulation of OAS1 gene expression” value in assay [3] (IFN-γ treatment, all cell types tested (wild-type and B2M-negative)) is more than 100 fold.
